Columns and labels:
complement factor Clq = target: T1, complement factor Clq (Homo sapiens, UniProt P02745+P02746+P02747); assay: Clq binding ELISA; details: antibody coated 25 to 0.02 μg/ml
T1 construct: purchased Sigma C1740-1mg
Method: In additional studies, the ability of the unconjugated anti-FGFR2 antibodies to bind the complement factor Clq was evaluated. The binding of the complement factor Clq is the initial step leading to complement dependent cytotoxicity (CDC) and cell lysis in vivo. In these studies the surface of the wells of 96-well microtiterplates (Nunc, Maxisorp, catalog # 439454) were coated with serial dilutions of the antibodies 12433, 12425, N297A_12425 and 10164 over night at 4° C. in the dark (all in a concentration range from 25 to 0.02 μg/ml). The commercially available antibody, Rituximab served as a positive control. In order to monitor the amount of bound antibody analyte on the microtiterplate, this procedure was performed twice per plate utilizing the second dilution (in triplicate) for determining the coating efficacy of the analyte to the plate. Clq binding was quantified by adding a constant concentration of Clq (Sigma; Complement component Clq catalog # C1740-1mg) and detected using a polyclonal goat-anti-human Clq antibody conjugated to Horse Radish Peroxidase HRP (AbD Serotec; Sheep Anti-Human Clq:HRP; Catalogue number 2221-5004P). The control of the coating efficiency was determined in the second dilution series with a peroxidase-conjugated goat-anti-human IgG antibody fragment (Jackson ImmunoResearch; catalog # 109-036-003; AffiniPure F(ab′2) fragment Goat Anti-Human IgG (H+L)). […]

[1] = system: CHGA119 patient-derived primary gastric tumor xenograft model; assay: Antitumor activity and body weight in CHGA119 patient-derived xenograft
From the text: In these studies, CHGA119 tumor fragments in size of 2mm ×2mm×2mm were implanted subcutaneously (s.c.) into female nu/nu athymic mice. […] Tumors were calipered twice a week.

[2] = CHGA119-tumor bearing mice, ADCs 10 mg/kg i.v. q2wk, BGJ398 10 mg/kg p.o. qd

T1 sequence (P02745 23-245): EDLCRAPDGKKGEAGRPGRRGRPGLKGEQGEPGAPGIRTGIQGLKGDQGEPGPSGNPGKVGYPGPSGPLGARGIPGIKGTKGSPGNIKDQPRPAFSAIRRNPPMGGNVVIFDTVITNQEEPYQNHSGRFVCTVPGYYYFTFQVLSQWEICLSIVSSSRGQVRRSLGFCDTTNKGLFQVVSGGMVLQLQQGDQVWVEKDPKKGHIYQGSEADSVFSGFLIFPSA
T1 sequence (P02746 28-253): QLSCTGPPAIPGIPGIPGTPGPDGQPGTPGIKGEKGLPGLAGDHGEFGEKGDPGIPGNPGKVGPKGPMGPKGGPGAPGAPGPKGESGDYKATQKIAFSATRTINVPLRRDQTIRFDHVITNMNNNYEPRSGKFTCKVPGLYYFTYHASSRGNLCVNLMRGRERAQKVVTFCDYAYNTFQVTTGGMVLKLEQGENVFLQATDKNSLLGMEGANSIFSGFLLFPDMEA
T1 sequence (P02747 29-245): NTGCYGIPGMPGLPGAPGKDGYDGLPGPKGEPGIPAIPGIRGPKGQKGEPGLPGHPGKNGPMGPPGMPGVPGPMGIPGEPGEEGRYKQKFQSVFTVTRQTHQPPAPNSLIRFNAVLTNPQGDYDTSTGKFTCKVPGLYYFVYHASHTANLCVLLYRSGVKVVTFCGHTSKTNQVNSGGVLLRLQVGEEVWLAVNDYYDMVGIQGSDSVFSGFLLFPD

Clq binding potency (EC50) (complement factor Clq)	Compound	Host response: % body weight change (mean ± SEM) [1, 2]	Host response: Mean body weight change (g ± SEM) [1, 2]	Host response: Survival (survivors/total) [1, 2]	T/C ([1]; single agent, 10 mg/kg, after 5 weeks of treatment)
about the same	Rituximab: commercially available antibody, positive control for Clq binding	–	–	–	–
–	CCN1CCN(c2ccc(Nc3cc(N(C)C(=O)Nc4c(Cl)c(OC)cc(OC)c4Cl)ncn3)cc2)CC1 [BGJ398, 3-(2,6-Dichloro, 3,5-dimethoxy-phenyl)-1-{6-[4-(4-ethyl-piperazin-1-yl)-phenylamino]-pyrimidin-4-yl}-1-methyl-urea]	−3.7 ± 3%	-0.8 ± 0.7 g	8/8	33%

From patent publication US20190345250A1, “ANTIBODY DRUG CONJUGATES” (NOVARTIS AG, priority 2013, published 2019)
